According to US8802597B2, “Herbicidal pyrimidines” (E I du Pont de Nemours and Company, priority 2003, dated 2014):
Read-outs that look alike come from different tables or passages of the source.

Experiments:
Format in all cases: in vivo
corn (Zea mays) = experiment: Test C pre/postemergence; conditions: Preemergence
Text: (§1) Seeds or nutlets of plant species selected from bermudagrass (Cynodon dactylon), Surinam grass (Brachiaria decumbens), cocklebur (Xanthium strumarium), corn (Zea mays), crabgrass (Digitaria sanguinalis), woolly cupgrass (Eriochloa villosa), giant foxtail (Setaria faberii), goosegrass (Eleusine indica), johnsongrass (Sorghum halepense), kochia (Kochia scoparia), lambsquarters (Chenopodium album), morningglory (Ipomoea coccinea), eastern black nightshade (Solanum ptycanthum), yellow nutsedge (Cyperus esculentus), pigweed (Amaranthus retroflexus), common ragweed (Ambrosia elatior), soybean (Glycine max), common (oilseed) sunflower (Helianthus annuus), and velvetleaf (Abutilon theophrasti) were planted and treated preemergence with test chemicals formulated in a non-phytotoxic solvent mixture which included a surfactant.
(§2) At the same time, plants selected from these crop and weed species and also winter barley (Hordeum vulgare), blackgrass (Alopecurus myosuroides), canarygrass (Phalaris minor), chickweed (Stellaria media), downy brome (Bromus tectorum), green foxtail (Setaria viridis), Italian ryegrass (Lolium multiflorum), wheat (Triticum aestivum), wild oat (Avena fatua) and windgrass (Apera spica-venti) were treated with postemergence applications of some of the test chemicals formulated in the same manner. Plants ranged in height from 2 to 18 cm (1- to 4-leaf stage) for postemergence treatments. Plant species in the flooded paddy test consisted of rice (Oryza sativa), umbrella sedge (Cyperus difformis), duck salad (Heteranthera limosa) and barnyardgrass (Echinochloa crus-galli) grown to the 2-leaf stage for testing. Treated plants and controls were maintained in a greenhouse for 12 to 14 days, after which time all species were compared to controls and visually evaluated. Plant response ratings, summarized in Table C, are based on a scale of 0 to 100 where 0 is no effect and 100 is complete control. A dash (-) response means no test result.

[1] = test system: common ragweed (Ambrosia elatior); experiment: Test C pre/postemergence; conditions: Preemergence, scale 0 to 100, 0 no effect, 100 complete control
Text: as §1, §2

[2] = test system: lambsquarters (Chenopodium album); experiment: Test C pre/postemergence; conditions: Preemergence
Text: as §1, §2

[3] = test system: cocklebur (Xanthium strumarium); experiment: Test C pre/postemergence; conditions: Preemergence
Text: as §1, §2

[4] = test system: velvetleaf (Abutilon theophrasti); experiment: Test A pre/postemergence; conditions: for pest or weed control at 125 g/ha / pest or weed control at 500 g/ha: Abutilon theophrasti, 240 h, read-out: Plant response rating, Velvetleaf
Method in brief: (§3)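 Visual injury scores on a 0–100 scale, 100 being complete control, were assigned roughly ten days after treatment by comparison with untreated greenhouse controls. Test chemicals, formulated with surfactant in non-phytotoxic solvent, were sprayed onto soil preemergence and onto 1–2-leaf plants 2–10 cm tall postemergence.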

[5] = test system: redroot pigweed (Amaranthus retroflexus); experiment: Test A pre/postemergence; conditions: for pest or weed control at 125 g/ha / pest or weed control at 500 g/ha: Amaranthus retroflexus, 240 h, read-out: Plant response rating, Pigweed
Method in brief: as §3

[6] = test system: giant foxtail (Setaria faberi); experiment: Test A pre/postemergence
Method in brief: as §3

[7] = test system: crabgrass (Digitaria sanguinalis); experiment: Test A pre/postemergence
Method in brief: as §3

[8] = test system: morningglory (Ipomoea spp.); experiment: Test A pre/postemergence; conditions: for pest or weed control at 125 g/ha / pest or weed control at 500 g/ha: Ipomoea, 240 h, read-out: Plant response rating, Morningglory
Method in brief: as §3

[9] = test system: barnyardgrass (Echinochloa crus-galli); experiment: Test A pre/postemergence
Method in brief: as §3

[10] = 16 g ai/ha, scale 0 to 100, 0 no effect, 100 complete control
[11] = 31 g ai/ha, scale 0 to 100, 0 no effect, 100 complete control
[12] = 62 g ai/ha, scale 0 to 100, 0 no effect, 100 complete control
[13] = post-emergence, Postemergence, 125 g ai/ha, 0 to 100 scale (0 no effect, 100 complete control)
[14] = post-emergence, Postemergence, 500 g ai/ha, 0 to 100 scale (0 no effect, 100 complete control)
[15] = pre-emergence, Preemergence, 125 g ai/ha, 0 to 100 scale where 0 is no effect and 100 is complete control, approximately ten days
[16] = pre-emergence, Preemergence, 500 g ai/ha, 0 to 100 scale where 0 is no effect and 100 is complete control, approximately ten days
[17] = Preemergence, 125 g ai/ha, 0 to 100 scale where 0 is no effect and 100 is complete control, approximately ten days
[18] = Postemergence, 500 g ai/ha, 0 to 100 scale (0 no effect, 100 complete control)
[19] = Postemergence, 125 g ai/ha, 0 to 100 scale (0 no effect, 100 complete control)
[20] = Preemergence, 500 g ai/ha, 0 to 100 scale where 0 is no effect and 100 is complete control, approximately ten days

With Nc1nc(C2CC2)nc(C(=O)[O-])c1Cl.[Na+] [Compound 77, 6-amino-5-chloro-2-cyclopropyl-4-pyrimidinecarboxylic acid monosodium salt] the “Plant response rating, Corn” value (corn (Zea mays); [10]) was 0, the “Plant response rating, Corn” value (corn (Zea mays); [11]) was 0 and the “Plant response rating, Corn” value (corn (Zea mays); [12]) was 0. For the same molecule, the “Plant response rating, Corn” value (corn (Zea mays); 125 g ai/ha, scale 0 to 100) was 35, the pest or weed control at 31 g/ha ([1]; Ambrosia artemisiifolia, pre-emergence, 31 g ai/ha, read-out: Plant response rating, Ragweed) was 0% and the pest or weed control at 62 g/ha ([1]; Ambrosia artemisiifolia, pre-emergence, 62 g ai/ha, read-out: Plant response rating, Ragweed) was 50%. The “Plant response rating, Ragweed” value ([1]; 16 g ai/ha) was 0, the “Plant response rating, Lambsquarters” value [2, 10] was 0 and the “Plant response rating, Lambsquarters” value [2, 11] was 0. For the same molecule, the “Plant response rating, Lambsquarters” value ([2]; 125 g ai/ha, scale 0 to 100) was 40, the “Plant response rating, Cocklebur” value [3, 10] was 55 and the “Plant response rating, Cocklebur” value [3, 11] was 70. It also gave a pest or weed control at 62 g/ha ([3]; Xanthium strumarium, pre-emergence, 62 g ai/ha, scale 0 to 100, 0 no effect, 100 complete control, read-out: Plant response rating, Cocklebur) of 80%, a pest or weed control at 125 g/ha ([3]; Xanthium strumarium, pre-emergence, 125 g ai/ha, scale 0 to 100, read-out: Plant response rating, Cocklebur) of 95% and a pest or weed control at 125 g/ha [4, 13] of 95%. The pest or weed control at 500 g/ha [4, 14] was 100%, the pest or weed control at 125 g/ha [4, 15] was 100% and the pest or weed control at 500 g/ha [4, 16] was 100%. For the same molecule, the pest or weed control at 125 g/ha [5, 13] was 95%, the pest or weed control at 500 g/ha [5, 14] was 95% and the pest or weed control at 125 g/ha [5, 15] was 85%. The pest or weed control at 500 g/ha [5, 16] was 95%, the “Plant response rating, Foxtail, Giant” value [6, 17] was 75 and the pest or weed control at 125 g/ha ([6]; Setaria faberi, post-emergence, 240 h, Postemergence, 125 g ai/ha, 0 to 100 scale (0 no effect, 100 complete control), read-out: Plant response rating, Foxtail, Giant) was 85%. It also gave a pest or weed control at 500 g/ha ([6]; Setaria faberi, post-emergence, 240 h, Postemergence, 500 g ai/ha, 0 to 100 scale (0 no effect, 100 complete control), read-out: Plant response rating, Foxtail, Giant) of 90%, a pest or weed control at 500 g/ha ([6]; Setaria faberi, pre-emergence, 240 h, Preemergence, 500 g ai/ha, 0 to 100 scale where 0 is no effect and 100 is complete control, approximately ten days, read-out: Plant response rating, Foxtail, Giant) of 95% and a pest or weed control at 125 g/ha ([7]; Digitaria sanguinalis, post-emergence, 240 h, Postemergence, 125 g ai/ha, 0 to 100 scale (0 no effect, 100 complete control), read-out: Plant response rating, Crabgrass) of 70%. The pest or weed control at 125 g/ha ([7]; Digitaria sanguinalis, pre-emergence, 240 h, Preemergence, 125 g ai/ha, 0 to 100 scale where 0 is no effect and 100 is complete control, approximately ten days, read-out: Plant response rating, Crabgrass) was 70%, the pest or weed control at 500 g/ha ([7]; Digitaria sanguinalis, pre-emergence, 240 h, Preemergence, 500 g ai/ha, 0 to 100 scale where 0 is no effect and 100 is complete control, approximately ten days, read-out: Plant response rating, Crabgrass) was 80% and the “Plant response rating, Crabgrass” value [7, 18] was 90. It also gave a pest or weed control at 125 g/ha [8, 13] of 95%, a pest or weed control at 500 g/ha [8, 14] of 100% and a pest or weed control at 125 g/ha [8, 15] of 100%. For the same molecule, the pest or weed control at 500 g/ha [8, 16] was 100%, the pest or weed control at 125 g/ha ([9]; Echinochloa crus-galli, post-emergence, 240 h, Postemergence, 125 g ai/ha, 0 to 100 scale (0 no effect, 100 complete control), read-out: Plant response rating, Barnyardgrass) was 90% and the pest or weed control at 500 g/ha ([9]; Echinochloa crus-galli, post-emergence, 240 h, Postemergence, 500 g ai/ha, 0 to 100 scale (0 no effect, 100 complete control), read-out: Plant response rating, Barnyardgrass) was 90%. The pest or weed control at 500 g/ha ([9]; Echinochloa crus-galli, pre-emergence, 240 h, Preemergence, 500 g ai/ha, 0 to 100 scale where 0 is no effect and 100 is complete control, approximately ten days, read-out: Plant response rating, Barnyardgrass) was 100% and the “Plant response rating, Barnyardgrass” value [9, 17] was 90.
CCCOC(=O)c1nc(C2CC2)nc(N)c1Cl [Compound 75] was tested, and the “Plant response rating, Corn” value (corn (Zea mays); [11]) was 0, the “Plant response rating, Corn” value (corn (Zea mays); [12]) was 30 and the “Plant response rating, Corn” value (corn (Zea mays); 125 g ai/ha, scale 0 to 100) was 65. For the same molecule, the “Plant response rating, Ragweed” value ([1]; 16 g ai/ha) was 20, the “Plant response rating, Ragweed” value ([1]; 31 g ai/ha) was 70 and the “Plant response rating, Ragweed” value ([1]; 62 g ai/ha) was 80. For the same molecule, the “Plant response rating, Ragweed” value [1] was 90, the “Plant response rating, Lambsquarters” value [2, 10] was 70 and the “Plant response rating, Lambsquarters” value [2, 11] was 75. For the same molecule, the “Plant response rating, Lambsquarters” value [2, 12] was 80, the “Plant response rating, Lambsquarters” value ([2]; 125 g ai/ha, scale 0 to 100) was 100 and the “Plant response rating, Cocklebur” value [3, 10] was 55. The “Plant response rating, Cocklebur” value [3, 11] was 90, the “Plant response rating, Cocklebur” value [3, 12] was 95 and the “Plant response rating, Cocklebur” value ([3]; 125 g ai/ha, scale 0 to 100) was 100. For the same molecule, the “Plant response rating, Velvetleaf” value [4, 19] was 85, the “Plant response rating, Velvetleaf” value [4, 18] was 100 and the “Plant response rating, Velvetleaf” value [4, 17] was 80. For the same molecule, the “Plant response rating, Velvetleaf” value [4, 20] was 95, the “Plant response rating, Pigweed” value [5, 19] was 90 and the “Plant response rating, Pigweed” value [5, 18] was 100. For the same molecule, the “Plant response rating, Pigweed” value [5, 17] was 90, the “Plant response rating, Pigweed” value [5, 20] was 95 and the “Plant response rating, Foxtail, Giant” value [6, 19] was 90. For the same molecule, the “Plant response rating, Foxtail, Giant” value [6, 18] was 90, the “Plant response rating, Foxtail, Giant” value [6, 17] was 75 and the “Plant response rating, Foxtail, Giant” value [6, 20] was 90. The “Plant response rating, Crabgrass” value [7, 19] was 80, the “Plant response rating, Crabgrass” value [7, 18] was 90 and the “Plant response rating, Crabgrass” value [7, 17] was 85. For the same molecule, the “Plant response rating, Crabgrass” value [7, 20] was 90, the “Plant response rating, Morningglory” value [8, 19] was 90 and the “Plant response rating, Morningglory” value [8, 18] was 90. For the same molecule, the “Plant response rating, Morningglory” value [8, 17] was 95, the “Plant response rating, Morningglory” value [8, 20] was 100 and the “Plant response rating, Barnyardgrass” value [9, 19] was 85. For the same molecule, the “Plant response rating, Barnyardgrass” value [9, 18] was 90, the “Plant response rating, Barnyardgrass” value [9, 17] was 70 and the “Plant response rating, Barnyardgrass” value [9, 20] was 95.
